Experimental data: patent publication US10457707B2, “Substituted urea depsipeptide analogs as activators of the CLPP endopeptidase” (priority 2015, dated 2019)
Converted amounts (≈) assume the structure as drawn. *1 amine or outer side, *2 acyl side, *3 side chain or, on linkers, in order; H or OH if unused. Where a SMILES comes first, the peptide text is derived from it. Bridges are numbered along the chain shown (N, C = ends). [ ]: non-standard residue; d: D form. The star is where a group is joined. Phe(3,5-F2) = N[C@@H](Cc1cc(F)cc(F)c1)C(=O)O; NMepT = CN[C@H](C(=O)O)[C@@H](C)OP(=O)(O)O; Pro(4S-Me) = C[C@@H]1CN[C@H](C(=O)O)C1; Pro(4R-Me) = C[C@H]1CN[C@H](C(=O)O)C1; NMeT = CN[C@H](C(=O)O)[C@@H](C)O; NH(4-Me-phenyl) = Cc1ccc(N*)cc1; aThr = C[C@H](O)[C@H](N)C(=O)O; Pip = O=C(O)[C@@H]1CCCCN1; CO = O=C([*:1])[*:2]

How the values were obtained:
Format in all cases: cell-based
[1] = Cytotoxicity assay (CellTiter-Glo cell viability, 72 hours); conditions: African green monkey; Vero cells, 72 hours, growth inhibition; read-out: Cytotoxicity IC50
Outline: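 Viability measured by CellTiter-Glo luminescence after 72-hour compound exposure (serial dilutions, DMSO control) of Vero monolayers seeded at 5000 cells/well in 10% FBS DMEM. IC50 values are the range of two biologically independent experiments, each run in duplicate.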

[2] = test system: Staphylococcus aureus, USA 300 wherein ClpP is inactivated; assay: Minimal inhibitory concentration assay
Outline: (§1)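 MIC is the lowest concentration stopping visible growth after overnight aerobic culture at 37 °C, per CLSI microbroth dilution (about 10^5 cfu/mL; two-fold series, top final 200 μM). ClpP-inactivated S. aureus USA 300 tested alongside parent strain to probe ClpP-mediated killing.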

[3] = test system: Staphylococcus aureus, USA 300; assay: Minimal inhibitory concentration assay; conditions: USA300, read-out: Minimal Inhibitory Concentrations S. aureus USA 300
Outline: as §1

[4] = test system: Streptococcus pneumoniae, R6; assay: Minimal inhibitory concentration assay; conditions: read-out: Minimal Inhibitory Concentrations S. pneumoniae R6
Outline: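 Microbroth dilution with two-fold serial compound dilutions in broth, incubated aerobically overnight at 37° C. MIC taken as the lowest concentration preventing bacterial growth.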

SMILES	IC50 at 72 h [1] [µM]	Minimal Inhibitory Concentrations S. aureus USA 300 ΔClpP [2] [µM]	MIC [3] [µM]	MIC [4] [µM]
Cc1ccc(NC(=O)N[C@@H](Cc2cc(F)cc(F)c2)C(=O)N[C@@H]2C(=O)N3CCC[C@H]3C(=O)N(C)[C@@H]([C@@H](C)OP(=O)(O)O)C(=O)N[C@@H](C)C(=O)N3C[C@@H](C)C[C@H]3C(=O)O[C@H]2C)cc1 [Compound 188, (R)-1-((2S,6S,9S,11aS,17S,18S,20aS)-17-((S)-3-(3,5-difluorophenyl)-2-(3-(p-tolyl)ureido)propanamido)-2,6,10,18-tetramethyl-5,8,11,16,20-pentaoxohexadecahydro-1H,5H,16H-dipyrrolo[2,1-c:2′,1′-l][1]oxa[4,7,10,13]tetraazacyclohexadecin-9-yl)ethyl dihydrogen phosphate] ({NH(4-Me-phenyl)-CO}-[Phe(3,5-F2)][aThr]P[NMepT]A[Pro(4S-Me)]; ester 2-C)	> 100	>200	50	13
Cc1ccc(NC(=O)N[C@@H](Cc2cc(F)cc(F)c2)C(=O)N[C@@H]2C(=O)N3CCC[C@H]3C(=O)N(C)[C@@H]([C@@H](C)O)C(=O)N[C@@H](C)C(=O)N3C[C@@H](C)C[C@H]3C(=O)O[C@H]2C)cc1 [Compound 35, (S)-3-(3,5-difluorophenyl)-N-((2S,6S,9S,11aS,17S,18S,20aS)-9-((R)-1-hydroxyethyl)-2,6,10,18-tetramethyl-5,8,11,16,20-pentaoxohexadecahydro-1H,5H,16H-dipyrrolo[2,1-c:2′,1′-l][1]oxa[4,7,10,13]tetraazacyclohexadecin-17-yl)-2-(3-(p-tolyl)ureido)propanamide] ({NH(4-Me-phenyl)-CO}-[Phe(3,5-F2)][aThr]P[NMeT]A[Pro(4S-Me)]; ester 2-C)	55.7 ± 3.6	200	0.2 (≈ 0.162 µg/mL)	0.049 (≈ 0.0398 µg/mL)
Cc1ccc(NC(=O)N[C@@H](Cc2cc(F)cc(F)c2)C(=O)N[C@H]2COC(=O)[C@@H]3C[C@@H](C)CN3C(=O)[C@H](C)NC(=O)C3CCCCN3C(=O)[C@@H]3C[C@@H](O)CN3C2=O)cc1 (stereo partly drawn) [Compound 323, (S)-3-(3,5-difluorophenyl)-N-((2R,6S,8aR,14aS,16R,20S,23aS)-16-hydroxy-2,6-dimethyl-5,8,14,19,23-pentaoxooctadecahydro-1H,5H,14H,19H-pyrido[2,1-i]dipyrrolo[2,1-c:2′,1′-l][1]oxa[4,7,10,13]tetraazacyclohexadecin-20-yl)-2-(3-(p-tolyl)ureido)propanamide]	> 100	>20	1.25 (≈ 1.01 µg/mL)	0.078 (≈ 0.0632 µg/mL)
Cc1ccc(NC(=O)N[C@@H](Cc2cc(F)cc(F)c2)C(=O)N[C@@H]2C(=O)N3CCC[C@H]3C(=O)N3CCCC[C@H]3C(=O)N[C@@H](C)C(=O)N3C[C@H](C)C[C@H]3C(=O)O[C@H]2C)cc1 [Compound 209, (S)-3-(3,5-difluorophenyl)-2-(3-(p-tolyl)ureido)-N-((2R,6S,8aS,14aS,20S,21S,23aS)-2,6,21-trimethyl-5,8,14,19,23-pentaoxooctadecahydro-1H,5H,14H,19H-pyrido[2,1-i]dipyrrolo[2,1-c:2′,1′-l][1]oxa[4,7,10,13]tetraazacyclohexadecin-20-yl)propanamide] ({NH(4-Me-phenyl)-CO}-[Phe(3,5-F2)][aThr]P[Pip]A[Pro(4R-Me)]; ester 2-C)	40 ± 4.1	100	0.05 (≈ 0.0404 µg/mL)	0.05 (≈ 0.0404 µg/mL)
